Results on eight molecules are retold here after ChEMBL document CHEMBL1629698, “Identification of the novel dfrK-carrying transposon Tn559 in a porcine methicillin-susceptible Staphylococcus aureus ST398 strain” (2010).

Molecules are shown by their SMILES. Values after ≈ are worked out from the molar mass of the structure shown.

The subject of this experiment is Staphylococcus aureus. Put plainly: Antimicrobial activity against Staphylococcus aureus 2171 by broth microdilution method. The experiment is classed as functional. A general note: Dilution methods test growth across graded concentrations, often in twofold steps.

As to `CC1(C)S[C@@H]2[C@H](NC(=O)[C@H](N)c3ccccc3)C(=O)N2[C@H]1C(=O)O` [AMPICILLIN], the MIC (usually the lowest concentration found to suppress growth) was determined as 4 µg/mL (≈ 11.4 µM).

For the molecule `CCC[C@@H]1C[C@@H](C(=O)N[C@@H]([C@H]2O[C@H](SC)[C@H](O)[C@@H](O)[C@H]2O)[C@H](C)Cl)N(C)C1` [CLINDAMYCIN], the MIC was ≥ 128 µg/mL.

`CCN1CCN(c2cc3c(cc2F)c(=O)c(C(=O)O)cn3C2CC2)CC1` [ENROFLOXACIN] came in with an MIC of 8 µg/mL (≈ 22.3 µM).

Turning to `CC[C@H]1OC(=O)[C@H](C)[C@@H](O[C@H]2C[C@@](C)(OC)[C@@H](O)[C@H](C)O2)[C@H](C)[C@@H](O[C@@H]2O[C@H](C)C[C@H](N(C)C)[C@H]2O)[C@](C)(O)C[C@@H](C)C(=O)[C@H](C)[C@@H](O)[C@]1(C)O` [ERYTHROMYCIN], the MIC is ≥ 64 µg/mL.

Take `Cc1onc(-c2ccccc2)c1C(=O)N[C@@H]1C(=O)N2[C@@H]1SC(C)(C)[C@@H]2C(=O)O` [OXACILLIN]: 0.5 µg/mL (≈ 1.25 µM) was the least that counted as inhibitory (MIC).

Turning to `CC1(C)S[C@@H]2[C@H](NC(=O)Cc3ccccc3)C(=O)N2[C@H]1C(=O)O` [PENICILLIN G], inhibition of growth (MIC) required 8 µg/mL (≈ 23.9 µM).

The molecule `CN(C)[C@@H]1C(O)=C(C(N)=O)C(=O)[C@@]2(O)C(O)=C3C(=O)c4c(O)cccc4[C@@](C)(O)[C@H]3C[C@@H]12` [TETRACYCLINE] yielded an MIC of 32 µg/mL (≈ 72 µM).

`COc1cc(Cc2cnc(N)nc2N)cc(OC)c1OC` [TRIMETHOPRIM]: the MIC was ≥ 128 µg/mL.
